The record followed here is patent publication US20150299250A1, “MACROCYCLIC COMPOUNDS AND USES THEREOF” (ADELAIDE RESEARCH & INNOVATION PTY LTD, priority 2012, published 2015).

The target in assay [1] is T1, 20S proteasome chymotrypsin-like (CT-L) activity (Oryctolagus cuniculus, UniProt G1T4Q9).
T1 sequence (G1T4Q9 1-263): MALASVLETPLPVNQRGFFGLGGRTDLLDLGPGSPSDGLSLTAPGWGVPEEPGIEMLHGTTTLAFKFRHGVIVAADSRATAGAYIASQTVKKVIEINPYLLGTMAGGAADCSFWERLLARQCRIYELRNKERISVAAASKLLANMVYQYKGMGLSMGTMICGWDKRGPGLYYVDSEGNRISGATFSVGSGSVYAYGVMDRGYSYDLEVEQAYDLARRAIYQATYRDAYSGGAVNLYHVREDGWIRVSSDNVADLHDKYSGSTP
Kind of assay: In vitro proteasome activity assay, CT-L (Suc-LLVY-AMC). Type of assay: biochemical, rabbit. To be noted: for IC50: purified 20S proteasome. As for the experimental part: The assays were performed in vitro using purified 20S proteasome/inhibitor mixtures, with the activity of each subunit of the proteasome assessed upon incubation with its respective target peptide.
(§1) Purified rabbit 20S proteasome and fluorogenic CT-L substrate (Suc-LLVY-AMC) were purchased from Boston Biochem (Cambridge, Mass., USA). The T-L and CP-L fluorogenic substrates (Ac-RLR-AMC and Z-nLPnLD-AMC) were purchased from Enzo Life Sciences (Farmingdale, N.Y., USA). The 20S proteasome was diluted to 0.2 μg/μL in 20S proteasome buffer (50 mM HEPES pH 7.6, 150 mM NaCl and 1 mM DDT) and stored at −80° C. Purified 20S proteasome (8 ng) was pre-incubated with the indicated concentrations of inhibitors for 15 minutes and subsequently added to the AMC-labeled substrate peptide (50 μM) in assay buffer (25 mM HEPES, pH 7.5, 0.5 mM EDTA, 0.05% NP-40, and 0.001% SDS (w/v)) at 37° C. for 2 hours.

Assay [2] has as its target T2, 20S proteasome CP-L activity (Oryctolagus cuniculus, UniProt A0A5F9DQW2).
T2 construct: Purified rabbit 20S proteasome
Kind of assay: In vitro proteasome activity assay, CP-L (Z-nLPnLD-AMC). Type of assay: biochemical, rabbit. To be noted: purified 20S proteasome; highest concentration tested 25,000 nM. As for the experimental part: We initially determined the ability of the novel tripeptide MG132 analogues 1-6 and the macrocycles 3a and 4a to inhibit the three separate protease activities of the 20S proteasome (CT-L, -T-L and CP-L). The assays were performed in vitro using purified 20S proteasome/inhibitor mixtures, with the activity of each subunit of the proteasome assessed upon incubation with its respective target peptide. […] In addition, there is no apparent clear-cut preference for the length of tether (compare compounds 1 to 4), while the introduction of an aryl group at P3 (as in 6) is well tolerated.
as §1, with “hours. Fluorescent substrate cleavage by the 20S proteasome was linear during this incubation timeframe (Supplementary Figure S4. Hydrolysed 7-amino-4-methylcoumarin (AMC) was subsequently detected with the FLUOstar OPTIMA microplatefluorometer at excitation/emission of 390/460 nm. The activity was estimated in relative fluorescence units and half of the maximal inhibitory activity of the proteasome is represented by IC50 values. A minimum of three biological replicates were performed for each data point.” for “hours.”

Assay [3] concerns VH-64 Ewing's sarcoma cells. Kind of assay: Cell viability assay (7AAD, 48 hours), VH-64. It is filed as cell-based. Particulars: 48 hours exposure; read-out: Cancer cell lines IC50 (μM) VH-64. As for the experimental part: (§2) Cell viability assays were performed as previously described. Briefly, cells were seeded in 96 well microtiterplates at a density of 3×10^4 cells per well in the presence of the indicated chemical. Cells were harvested 48 hours post-treatment, centrifuged at 1,300×g, washed in phosphate-buffered saline (PBS) and stained with 7AAD solution (2 μg/mL) (7-amino-actinomycin-D, Invitrogen, Carlsbad, Calif.) for 10 mins at room temperature. Viable cells were determined with the use of a FACS Calibur flow cytometer (Becton Dickinson Immunocytometry Systems), and analyzed with the use of FLOWJO (Tree Star, Inc) and GraphPad Prism (GraphPad Software Inc).
(§3) WE-68 and VH-64 Ewing's sarcoma cells were kindly supplied by F. van Valen (Department of Orthopaedic Surgery, Westfalische-Wilhelms-University, Germany).TC-252 and STA-ET-1 Ewing's sarcoma cells were kindly provided by G. Hamilton (Department of Surgery, University of Vienna, Austria) or P. Ambros (Children's Cancer Research Institute, St Anna Children's Hospital, Vienna, Austria). Primary human embryonic fibroblasts or primary human osteoblasts were collected from the Women's and Children's Hospital (North Adelaide, South Australia, Australia) or Royal Adelaide Hospital with patient consent. Mouse Embryonic Fibroblasts (MEFs) and its p53-null derivative were kindly supplied by Guillermina Lozano (Department of Genetics, Anderson Cancer Centre, University of Texas, Houston, Tex., USA). WE-68 cell lines were grown in RPMI-1640 media, whilst human embryonic fibroblasts and MEFs were grown in Dulbecco's Modified Eagle's Medium (DMEM). Media was supplemented with 10% FCS, 1% PSG and 10 mM HEPES. All cells were maintained at 37° C. in a humidified atmosphere of 5% CO2.

The test system of assay [4] is primary human embryonic fibroblasts. Kind of assay: Cell viability assay (7AAD, 48 hours), normal fibroblasts. Type of assay: cell-based. To be noted: Fibroblast, 48 hours exposure, read-out: Normal cell lines IC50 (μM) Fibroblasts. On the procedure:
as §2, §3

Assay [5] concerns MEF p53+/+ (mouse embryonic fibroblasts). Kind of assay: Cell viability assay, MEF p53+/+. It is filed as cell-based.
Text: Although proteasome inhibitors have been translated from the bench to the clinic over the past decade, their specific mechanisms of action remain poorly understood. As discussed earlier, proteasomal over-activity in tumor cells has been attributed to aberrant degradation of numerous critical cancer-related pro proteins, including the pro-apoptotic tumor suppressor, p53. However, the role of p53 as a downstream mediator of cell death in response to proteasomal inhibition remains unclear. Therefore, we used our small library of CT-L specific proteasome inhibitors (compounds 1-6) to determine the role of p53 in their mechanism of cytotoxic action. For this purpose, we utilized mouse embryonic fibroblasts (MEFs) from transgenic p53^+/+ and p53^−/− littermates. This isogenic pair of cell lines are either competent (MEF p53^+/+) or deficient (MEF p53^−/−) in p53 protein and are used here to assess a potential role for p53 as a downstream inducer of cell death in response to proteasomal inhibition.
as §2, §3

Assay [6] relates to normal cell lines (fibroblasts, osteoblasts). Kind of assay: Cell viability assay, normal cell lines (average). Type of assay: cell-based. To be noted: Homo sapiens; average of fibroblasts and osteoblasts. On the procedure:
as §2, §3

The mark [7] stands for this setting: Mus musculus, Fibroblast; read-out: IC50 in MEF p53+/+.

Each structure is given as a SMILES string. Read-outs that look alike come from different tables or passages of the source. Where a SMILES comes first, the peptide text is derived from it. The star is where a group is joined. Cbz = O=C(OCc1ccccc1)* Where only a bound is given, the exact number is not on record here.

T2 sequence (A0A5F9DQW2 1-212): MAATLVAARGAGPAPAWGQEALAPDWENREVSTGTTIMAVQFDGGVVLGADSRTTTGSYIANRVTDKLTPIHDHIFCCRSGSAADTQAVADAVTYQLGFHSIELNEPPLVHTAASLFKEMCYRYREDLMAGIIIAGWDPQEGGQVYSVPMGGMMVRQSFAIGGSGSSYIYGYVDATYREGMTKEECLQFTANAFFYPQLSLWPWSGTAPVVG

For `C#CCOc1ccc(C[C@@H](C=O)NC(=O)[C@H](CC(C)C)NC(=O)[C@H](CCN=[N+]=[N-])NC(=O)OCc2ccccc2)cc1` [Compound 2], the IC50 in assay [1] is 355 nM; in assay [2], greater than 25000 nM; in assay [3], 4.9 µM; in assay [4] it was 29.4 µM; in assay [5] (setting [7]), 2700 to 10300 nM; in assay [6], 21500 nM.
`C#CCOc1ccc(C[C@@H](C=O)NC(=O)[C@H](CC(C)C)NC(=O)[C@H](CCCN=[N+]=[N-])NC(=O)OCc2ccccc2)cc1` [Compound 3]: the IC50 in assay [1] is 54 nM; in assay [2], greater than 25000 nM; in assay [3], 2.1 µM; in assay [4], 8.8 µM; in assay [5] (setting [7]), 2700 to 10300 nM; in assay [6] it was 13800 nM.
For the molecule `C#CCOc1ccc(C[C@@H](C=O)NC(=O)[C@H](CC(C)C)NC(=O)[C@H](CCCCN=[N+]=[N-])NC(=O)OCc2ccccc2)cc1` [Compound 4], the IC50 in assay [1] is 150 nM; in assay [2] it was greater than 25000 nM; in assay [3], 1.9 µM; in assay [4] it was 39.5 µM; in assay [5] (setting [7]), 2700 to 10300 nM; in assay [6], 25000 nM.
Take `C#CCOc1ccc(C[C@@H](C=O)NC(=O)[C@@H](NC(=O)[C@H](CCCCN=[N+]=[N-])NC(=O)OCc2ccccc2)[C@@H](C)CC)cc1` [Compound 5]: the “increase in potency against CT-L relative to compound 4 (Leu at P2)” value in assay [1] is recorded as 7.5 fold. Further, the IC50 is 21 nM in assay [1]; greater than 25000 nM in assay [2]; 1.1 µM in assay [3]; 19.9 µM in assay [4]; 2700 to 10300 nM in assay [5] (setting [7]); 12400 nM in assay [6].
Regarding `C#CCOc1ccc(C[C@@H](C=O)NC(=O)[C@H](CC(C)C)NC(=O)[C@H](Cc2ccc(N=[N+]=[N-])cc2)NC(=O)OCc2ccccc2)cc1` [Compound 6], the IC50 in assay [1] was 23 nM; in assay [2] it was greater than 25000 nM; in assay [3], 1.9 µM; in assay [4] it was 45.4 µM; in assay [5] (setting [7]), 2700 to 10300 nM; in assay [6], 28500 nM.
As to `CC(C)C[C@@H](C=O)NC(=O)[C@H](CC(C)C)NC(=O)[C@H](CC(C)C)NC(=O)OCc1ccccc1` [MG132, reference compound] (Cbz-Leu-Leu-Leu-aldehyde), the IC50 in assay [1] was 1.2 nM; in assay [2], 545 nM; in assay [3] it was 0.68 µM; in assay [4], 2.8 µM; in assay [5] (Mus musculus, Fibroblast, read-out: IC50 in MEF p53+/+), 410 nM; in assay [6] it was 2800 nM. For the same molecule, the “MEF p53+/+ more sensitive compared to MEF p53-/-” value in assay [5] is “over 2 fold”.
